Where two headings read alike, the source gives them in different places. Numbered stars: 1 amine (or outer) side, 2 acyl side, 3 side chain; on linkers, the order of the positions; unused ones are H or OH. Bridge positions count the residues as written; N and C are the ends. Square brackets hold non-standard residues; d marks the D form. Peptide text beside a SMILES is read from it. I, II: the chains in the order shown. Actinocin(9to1) = Cc1c2oc3c(C)ccc(C(=O)[*:1])c3nc-2c(C(=O)[*:2])c(N)c1=O; NMeV = CN[C@H](C(=O)O)C(C)C; Sar = CNCC(=O)O
Experiments:
[1] = system: CHOP-resistant G3 NHL cells; test: Cell growth assay (resazurin fluorescence) on G3 cells; type: cell-based, human; settings: for Magnitude of potentiation in combination with doxorubicin: G3; for IC50: Homo sapiens
Procedure: Compositions were tested on CHOP-resistant G3 NHL cells that had been cultivated in RPMI medium for five days. Prior to assay, the cells were counted by haemocytometer and cell concentration standardized to 625,000 cells/ml. Test drugs were solubilized in 100% DMSO and then diluted to final assay concentration with 0.1M phosphate buffered saline (PBS) and a final DMSO concentration of 0.5%. […] The metabolic dye rezasurin was added to the wells of the assay plate at a final concentration of 20 μg/ml and the plates were incubated for an additional 24 hours. The plates were then read in a BMG Polarstar plate reader at wavelength (573-605) and the data plotted as OD versus increasing dilutions (i.e., decreasing total amounts) of rifabutin derivative concentration.
(§1) In these experiments, the following cell lines were used: CHOP-resistant NHL cell line G3, CHOP-sensitive NHL cell line CRL2631, the multi-drug resistant sarcoma cell line MES-SA-Dx5; multi-drug-resistant breast cancer cell line MDA-MB-231, multi-drug resistant ovarian carcinoma cell line SK-OV3, multi-drug resistant ovarian cancer cell line NCI/ADR-RES, drug-sensitive ovarian cancer cell line OVCAR-5, and multi-drug resistant ovarian cancer cell line OVCAR-3. […]

[2] = system: primary human fibroblasts; test: Comparative cytotoxicity on primary human fibroblasts; settings: FIG. 3A and 3B
[3] = system: multi-drug resistant ovarian carcinoma cell line SK-OV3; test: Cell growth assay on SK-OV3 cells; type: cell-based, human
Text: as §1

[4] = system: drug-sensitive ovarian cancer cell line OVCAR-5; test: Cell growth assay on OVCAR-5 cells; type: cell-based
Text: (§2) In these experiments, the following cell lines were used: CHOP-resistant NHL cell line G3, CHOP-sensitive NHL cell line CRL2631, the multi-drug resistant sarcoma cell line MES-SA-Dx5; multi-drug-resistant breast cancer cell line MDA-MB-231, multi-drug resistant ovarian carcinoma cell line SK-OV3, multi-drug resistant ovarian cancer cell line NCI/ADR-RES, drug-sensitive ovarian cancer cell line OVCAR-5, and multi-drug resistant ovarian cancer cell line OVCAR-3.
(§3) Additional cell lines used include: ovarian cancer OVCAR-8. T lymphoblastoid leukemia MOLT-4, dexamethasone-resistant multiple myeloma MM.1R, myeloid leukemia cells HL-60, osteosarcoma cells U-2 OS, and myeloma RPMI 8226.

[5] = system: multi-drug resistant sarcoma cell line MES-SA-Dx5; test: Cell growth assay on MES-SA-Dx5 cells; type: cell-based
Text: as §2, §3

[6] = system: T lymphoblastoid leukemia MOLT-4; test: Cell growth assay on MOLT-4 cells; type: cell-based; settings: with Rifabutin vs drug alone
Text: as §3

MMP2 = MMP2 secretion ELISA in U2-OS cells; type: cell-based; settings: 5 uM RTI-79
[7] = Pharmacokinetics (plasma concentration, half-life, tissue absorption); settings: after administration
[8] = system: multi-drug resistant ovarian cancer cell line OVCAR-3; test: Cell growth assay on OVCAR-3 cells; type: cell-based
Text: as §2, §3

[9] = mice treated with RTI-79 with or without DOX
Procedure: Swiss mice were dosed with levels equal to and exceeding that of intended doses.

calcium mobilization = test: Calcium mobilization by Fluo-4AM staining and flow cytometry; type: cell-based
Procedure: (§4) MDR/P-gp activity is closely associated with calcium status in the cell, so calcium modulators were tested for effects on ROS. […] Relatively Dox-sensitive lymphoma (CRL2631, 10S, WSU) and ovarian carcinoma (OVCAR8) and more Dox-resistant lymphoma (G3R, 10R, WSUR) and ovarian carcinoma (ADR) were treated with 10 uM […] for 2 hrs. […] Cells were co-stained with the cell-permeable red fluorescent ROS indicator, CellROX, and cell-permeable green fluorescent calcium indicator. Fluo-4AM, and then subjected to flow cytometry to quantitate changes in ROS and calcium levels.
(§5) All samples were analyzed at the same time in flow cytometry.

[10] = system: multi-drug resistant ovarian cancer cell line (NCI/ADR-RES) xenografts; test: NCI/ADR-RES xenograft efficacy studies in nude mice; type: in vivo; settings: DOXIL 7 mg/kg i.v. + RTI-79 25 mg/kg oral
Text: In a sixth efficacy study, we generated xenografts of multi-drug resistant ovarian cancer cell line (NCI/ADR-RES) by implantation of NCI/ADR-RES cell xenografts in the left and right flanks of nude mice, resulting in two tumors per mice. […] Tumor size was monitored.
In a seventh efficacy study, we generated xenografts of multi-drug resistant ovarian cancer cell line (NCI/ADR-RES) by implantation of NCI/ADR-RES cells xenografts in the left and right flanks of nude mice, resulting in two tumors per mouse. […] Tumor size was monitored.

[11] = system: multi-drug-resistant breast cancer cell line MDA-MB-231; test: Cell growth assay on MDA-MB-231 cells; type: cell-based
Text: as §2, §3

VEGF = VEGF secretion ELISA in U2-OS cells; type: cell-based; settings: RTI-79
[12] = system: multi-drug resistant ovarian cancer cell line NCI/ADR-RES; test: Cell growth assay on NCI/ADR-RES cells; type: cell-based
Text: as §2, §3

total intracellular ROS = test: Intracellular ROS by CellROX staining and flow cytometry; type: cell-based; settings: for Induction of ROS: OVCAR8, ADR-RES and G3 cells, 2 hrs, 10 uM, FIG. 38
Text: Cells were then stained with the fluorescent ROS indicator, CellROX, and subjected to flow cytometry to quantitate total intracellular ROS.
The electron transport chain (ETC) is known to be a primary generator of ROS in the cell. Most of the ROS is generated by Complexes I and III of the ETC. Inhibition of Complex I results in electrons piling up and leaking to react with oxygen to produce ROS.
as §4, §5

Row | Compound | Magnitude of potentiation in combination with doxorubicin [1] | Toxicity to normal cells [2] | Magnitude of potentiation in combination with doxorubicin [3] | Magnitude of potentiation in combination with doxorubicin [4] | Magnitude of potentiation in combination with doxorubicin [8] | Magnitude of potentiation in combination with doxorubicin [5] | Magnitude of potentiation in combination with doxorubicin [12] | Induction of ROS (total intracellular ROS) | other results
1 | 11-deoxy-11-amino-4-deoxy-3,4[2-spiro-[1-(isobutyloxycarbonyl)-piperidin-4-yl]]-(1H)-imidazo-(2,5-dihydro)rifamycin S [RTI-176] | +++ (+++ potentiation greater than 5 fold increase) | not toxic | +++ (+++ potentiation greater than 5 fold increase) | + (+ potentiation between 1.2 to 2.0 fold increase) | – | – | – | – | Fold increase in potency over DOX alone ([1]; lymphoma cell line G3): 5.2 fold
2 | Cc1c2oc3c(C)ccc(C(=O)N[C@@H]4C(=O)N[C@H](C(C)C)C(=O)N5CCC[C@H]5C(=O)N(C)CC(=O)N(C)[C@@H](C(C)C)C(=O)O[C@@H]4C)c3nc-2c(C(=O)N[C@@H]2C(=O)N[C@H](C(C)C)C(=O)N3CCC[C@H]3C(=O)N(C)CC(=O)N(C)[C@@H](C(C)C)C(=O)O[C@@H]2C)c(N)c1=O [Actinomycin D, actinomycin D, reference compound] (I: T[dV]P[Sar][NMeV] / II: T[dV]P[Sar][NMeV]; ester I:1-I:C, II:1-II:C; linker I:N-II:N via Actinocin(9to1)) | – | – | – | – | – | – | – | – | Fold increase in potency ([5]; with Rifabutin vs drug alone): 3 fold; Fold increase in potency [6]: >5 fold
3 | 4-deoxy-3,4[2-spiro-[1-(isobutyloxycarbonyl)-piperidin-4-yl]]-(1H)-imidazo-(2,5-dihydro)rifamycin S [RTI-79] | ++ (++ potentiation between 2.1 to 5 fold increase) | not toxic | +++ (+++ potentiation greater than 5 fold increase) | + (+ potentiation between 1.2 to 2.0 fold increase) | + (+ potentiation between 1.2 to 2.0 fold increase) | ++ (++ potentiation between 2.1 to 5 fold increase) | ++ (++ potentiation between 2.1 to 5 fold increase) | induced ROS | MMP2 secretion (MMP2): 10.5 ng/million cells; Time to maximal plasma concentration [7]: ≤ 3 h; Heart tissue histology (H&E) and complete blood count and manual differential [9]: no significant differences; Time of treatment before calcium mobilization occurred (calcium mobilization; G3 cells, 10 uM RTI-79): > 15 min; Tumor volume lower than in mice receiving only DOXIL ([10]; seventh study, after 46 days): 55%; Tumor volume reduction during the course of the study ([10]; seventh study): 50%; Tumor volume lower than in mice receiving only DOXIL ([10]; sixth study, after 41 days): 66%; Magnitude of potentiation in combination with doxorubicin [11]: + (+ potentiation between 1.2 to 2.0 fold increase); VEGF secretion (VEGF): 436 pg/million cells; Time after exposure at which increases in ROS were seen (total intracellular ROS; G3 cells, 10 uM RTI-79): 1 min
4 | CO[C@H]1/C=C/O[C@@]2(C)Oc3c(C)c(O)c4c(c3C2O)C2=NC3(CCN(C(=O)OCC(C)C)CC3)NC2=C(NC(=O)/C(C)=C\C=C\[C@H](C)[C@H](O)[C@@H](C)[C@@H](O)[C@@H](C)[C@H](OC(C)=O)[C@@H]1C)C4=O (stereo partly drawn) [RTI-175, 11-deoxy-11-hydroxy-4-deoxy-3,4[2-spiro-[1-(isobutyloxycarbonyl)-piperidin-4-yl]]-(1H)-imidazo-(2,5-dihydro)rifamycin S] | ++ (++ potentiation between 2.1 to 5 fold increase) | – | +++ (+++ potentiation greater than 5 fold increase) | ++ (++ potentiation between 2.1 to 5 fold increase) | + (+ potentiation between 1.2 to 2.0 fold increase) | + (+ potentiation between 1.2 to 2.0 fold increase) | ++ (++ potentiation between 2.1 to 5 fold increase) | – | IC50 [1]: > 64 µM; IC50 ([1]; read-out: IC50 (μM) with doxorubicin (1 μM)): 1.06 µM
5 | COc1cc2c(cc1OC)CN(CCc1ccc(NC(=O)c3cccc4c(=O)c5cccc(OC)c5[nH]c34)cc1)CC2 [elacridar] | – | – | – | – | – | – | – | induced ROS | Induction of calcium (calcium mobilization; FIG. 41B): induced calcium; Induction of ROS relative to control drugs (total intracellular ROS; ADR and OVCAR8 cells, FIG. 41A): induced ROS

Reference: patent US9539237B2, “Compositions and methods for drug-sensitization or inhibition of a cancer cell” (The Texas A&M University System, priority 2012, dated 2017)
